# Laboratory results from patent publication US11932599B2, “Ferroptosis inducing compound, compositions comprising the same, and methods of inducing ferroptosis” (UNIVERSITY OF MASSACHUSETTS, priority 2021, dated 2024).
# Legend:
# HT-1080 cells [1] = assay: Cell viability assay (Alamar Blue), cytotoxicity in HT-1080 cells; assay type: cell-based, human; conditions: Homo sapiens
# Protocol: (§1) Cell lines and media. In the following example, HT-1080 (Human fibrosarcoma harboring NrasQ61K) cells (obtained from ATCC) were grown in DMEM high-glucose media with 1% non-essential amino acids (Life Technologies) and 10% FBS. 143B cells were grown in DMEM high-glucose media with 1% glutamine and 10% FBS. Calu-1 cells were grown in McCoy's 5A media (Life Technologies) supplemented with 10% FBS. All the cell lines were grown at 37° C. under 5% CO2. Cell lines were not tested for mycoplasma. In addition, the panel of four lung cancer (NCI-H23; SK-Mes-1; Calu6 and A549) were purchased from ATCC. They were cultured according to the ATCC protocol of each cell line. The non-malignant breast epithelial cells (MCF10A) were maintained in DMEM/F12 medium supplemented with 5% horse serum, epidermal growth factor (20 ng/ml), insulin (10 μg/ml), hydrocortisone (0.5 mg/ml), cholera toxin (100 ng/ml), and penicillin/streptomycin.
# (§2) Cell viability assay. 9,000 cells per 100 μl were seeded in each well in 96-well plates. Lethal compounds were dissolved in DMSO. In the mother plates, DMSO stock of each compound was further diluted with media to create 20 μM or 10 μm as highest concentrations, respectively and a twofold, 9-point dilution series was prepared. Cells were seeded for 24 h and media were replaced by the mother plate drug-dilution media. When ferroptosis inhibitors (for example, 500 nM Ferrostatin-1, 100 μM α-tocopherol, 152 μM deferoxamine) were used in cotreatments with lethal inducers, they were supplemented to cell culture when the lethal compounds were added, and the cells were then incubated for 48 h. When other cell-death-modulating compounds (100 nM sodium selenite) were used in cotreatments, they were supplemented to cell culture for 24 h before lethal compounds were added to cell culture, after which cells were further incubated for 48 h at 37° C. under 5% CO2. On the day of the viability measurement, we added 25 μl per well of 50% Alamar Blue diluted in media (Life Technologies) and further incubated the cells at 37° C. for 6 h. Fluorescence intensity (excitation/emission: 540/590) was measured with a Victor 3 plate reader (PerkinElmer), and the normalized viability was calculated as VL=(IL−I0)/(IV−I0), where VL is the normalized viability, I0 is the raw fluorescence intensities from the wells containing media, IV is the cells treated with a vehicle (negative control), and IL is the cells with the lethal compound (L), respectively. The viability was typically measured in at least biological duplicate. A representative dose-response curve, the mean and standard error of normalized viability from one replicate were plotted.
# Statistical analysis and data visualization. Dose-response curve plotting and EC50 computation were performed with Prism 6.0c (GraphPad Software).
# Various compounds were selected for analysis of their cytotoxicity in HT-1080 cells according to the procedure described above.
# HT-1080 cells [2] = assay: Analysis of ROS generation: lipid ROS by C11-BODIPY flow cytometry; assay type: cell-based, human; conditions: C11-BODIPY (2 μM), 4 hours
# Protocol: Analysis of ROS Generation. 200,000 HT-1080 cells were seeded in six-well plates at 37° C. for 17 h. Cells were treated with TKD1079 compound, trypsinized, pelleted, and washed once with PBS. For lipophilic or aqueous ROS detection, cells were re-suspended in Hanks' Balanced Salt Solution (HBSS; Life Technologies) containing test compounds as well as C11-BODIPY(581/591) (2 μM) (Life Technologies), and incubated for 10 min at 37° C. Cells were then pelleted, re-suspended in 250 μL HBSS in a BD Falcon tube, and analyzed using a BD Accuri C6 flow cytometer (BD Biosciences). Both dyes were measured in the FL1 channel.
# NCI-H23 cells = assay: Cell viability assay, cytotoxicity in NCI-H23 cells; assay type: cell-based; conditions: 48 hours
# Protocol: as §1
# Cell viability assay. 9,000 cells per 100 μl were seeded in each well in 96-well plates. Lethal compounds were dissolved in DMSO. In the mother plates, DMSO stock of each compound was further diluted with media to create 20 μM or 10 μm as highest concentrations, respectively and a twofold, 9-point dilution series was prepared. […] Fluorescence intensity (excitation/emission: 540/590) was measured with a Victor 3 plate reader (PerkinElmer), and the normalized viability was calculated as VL=(IL−I0)/(IV−I0), where VL is the normalized viability, I0 is the raw fluorescence intensities from the wells containing media, IV is the cells treated with a vehicle (negative control), and IL is the cells with the lethal compound (L), respectively. The viability was typically measured in at least biological duplicate. […]
# In addition, the compound TKD1079 was also analyzed for cytotoxicity in four different lung cancer cell lines according to the procedure described above. […] Cytotoxicity was also determined against MCF10A non-malignant breast epithelial cell, NCI-H1299 human non-small cell lung carcinoma cell line, and Beas-2B epithelial cells isolated from normal human bronchial epithelium.
# [3] = tested on: four lung cancer cell lines (NCI-H23, Calu6, A549, SK-Mes-1); assay: Cell viability of four lung cancer cell lines cotreated with ferrostatin-1; assay type: cell-based; conditions: ferrostatin-1 500 nM, 48 h
# Protocol: as §1, with “The non-malignant breast epithelial cells (MCF10A) were maintained in DMEM/F12 medium supplemented with 5% horse serum, epidermal growth factor (20 ng/ml), insulin (10 μg/ml), hydrocortisone (0.5 mg/ml), cholera toxin (100 ng/ml), and penicillin/streptomycin.” left out
# (§3) Cell viability assay. […] Fluorescence intensity (excitation/emission: 540/590) was measured with a Victor 3 plate reader (PerkinElmer), and the normalized viability was calculated as VL=(IL−I0)/(IV−I0), where VL is the normalized viability, I0 is the raw fluorescence intensities from the wells containing media, IV is the cells treated with a vehicle (negative control), and IL is the cells with the lethal compound (L), respectively. The viability was typically measured in at least biological duplicate. […]
# HT-1080 cells [4] = assay: Cell viability assay in HT-1080 cells, cotreatment with cell-death inhibitors; assay type: cell-based, human; conditions: HT-1080, 48 h; for EC50: Homo sapiens, read-out: EC50 (μM) of TKD1079 + inhbitor
# [5] = tested on: MCF10A non-malignant breast epithelial cell; assay: Cell viability assay, cytotoxicity in MCF10A cells; assay type: cell-based; conditions: 48 hours
# Protocol: as §1, with “The non-malignant breast epithelial cells (MCF10A) were maintained in DMEM/F12 medium supplemented with 5% horse serum, epidermal growth factor (20 ng/ml), insulin (10 μg/ml), hydrocortisone (0.5 mg/ml), cholera toxin (100 ng/ml), and penicillin/streptomycin.” left out
# as §3
# (§4) In addition, the compound TKD1079 was also analyzed for cytotoxicity in four different lung cancer cell lines according to the procedure described above. […]
# Beas-2B epithelial cells = assay: Cell viability assay, cytotoxicity in Beas-2B cells; assay type: cell-based; conditions: 48 hours
# Protocol: as §2, with “When other cell-death-modulating compounds (100 nM sodium selenite) were used in cotreatments, they were supplemented to cell culture for 24 h before lethal compounds were added to cell culture, after which cells were further incubated for 48 h at 37° C. under 5% CO2. On the day of the viability measurement, we added 25 μl per well of 50% Alamar Blue diluted in media (Life Technologies) and further incubated the cells at 37° C. for 6 h.” left out, “A representative dose-response curve, the mean and standard error of normalized viability from one replicate were plotted.” left out
# as §4
# [6] = HT-1080, HT-1080 cells, compound alone, read-out: EC 50
smiles,measurement,setting,value
"CCC(CC)NS(=O)(=O)c1ccc2c(c1)C(=NO)c1cc(S(=O)(=O)NC(CC)CC)ccc1-2 [TKD1034D, 9-(hydroxyimino)-N^2,N^7-di(pentan-3-yl)-9H-fluorene-2,7-disulfonamide]",EC50,HT-1080 cells [1]; [6],0.51 µM
"CCCNS(=O)(=O)c1ccc2c(c1)C(=NO)c1cc(S(=O)(=O)NCCC)ccc1-2 [TKD1034E, 9-(hydroxyimino)-N^2,N^7-dipropyl-9H-fluorene-2,7-disulfonamide]",EC50,HT-1080 cells [1]; [6],5.67 µM
"C#CC1(O)c2cc(S(=O)(=O)NC3CCCCC3)ccc2-c2ccc(S(=O)(=O)NC3CCCCC3)cc21 [TKD1066, N^2,N^7-dicyclohexyl-9-ethynyl-9-hydroxy-9H-fluorene-2,7-disulfonamide]",EC50,HT-1080 cells [1]; [6],4.59 µM
"O=S(=O)(NC1CC2CCC1C2)c1ccc2c(c1)C(=NO)c1cc(S(=O)(=O)NC3CC4CCC3C4)ccc1-2 (stereo not shown) [TKD1079, N^2,N^7-di(bicyclo[2.2.1]heptan-2-yl)-9-(hydroxyimino)-9H-fluorene-2,7-disulfonamide]",lipid ROS generation during cell death,HT-1080 cells [2],increased
same,ferroptosis induction in NCI-H23 using ferroptosis inhibitors,"NCI-H23 cells; NCI-H23, DFOM (152 μM) and Fer-1 (0.5 μM)",induces ferroptosis
same,cytotoxicity (cell viability) in NCI-H23 cells,NCI-H23 cells,highly potent
same,cytotoxicity in the presence of Fer-1,[3],blocked
same,Slectivity in fold [EC50 (TKD1079 + inhibitor)/ EC50 inhbitor],HT-1080 cells [4]; DFOM (152 μM),34.2 fold
same,Slectivity in fold [EC50 (TDK1079 + inhibitor)/ EC50 inhbitor],HT-1080 cells [4]; Ebselen (5 μM),5.8 fold
same,Slectivity in fold [EC50 (TKD1079 + inhibitor)/ EC50 inhbitor],HT-1080 cells [4]; Fer 1 (500 nM),68.8 fold
same,Slectivity in fold [EC50 (TDK1079 + inhibitor)/ EC50 inhbitor],HT-1080 cells [4]; Selenite (100 nM),9.5 fold
same,Slectivity in fold [EC50 (TDK1079 + inhibitor)/ EC50 inhbitor],HT-1080 cells [4]; TOFA (10 μM),148.7 fold
same,Slectivity in fold [EC50 (TDK1079 + inhibitor)/ EC50 inhbitor],HT-1080 cells [4]; Trolox (100 μM),11.6 fold
same,Slectivity in fold [EC50 (TKD1079 + inhibitor)/ EC50 inhbitor],HT-1080 cells [4]; ZVAD 45 μM,0.6 fold
same,blocking of the compound's lethality by the apoptosis inhibitor pathway (ZVAD),HT-1080 cells [4]; ZVAD 45 μM,did not block
same,Slectivity in fold [EC50 (TKD1079 + inhibitor)/ EC50 inhbitor],HT-1080 cells [4]; aToc (100 μM),13.5 fold
same,EC50,HT-1080 cells [4]; cotreated with DFOM (152 μM),2.73 µM
same,EC50,HT-1080 cells [4]; cotreated with Ebselen (5 μM),0.459 µM
same,EC50,HT-1080 cells [4]; cotreated with Fer 1 (500 nM),5.48 µM
same,EC50,HT-1080 cells [4]; cotreated with Selenite (100 nM),0.758 µM
same,EC50,HT-1080 cells [4]; cotreated with TOFA (10 μM),11.8 µM
same,EC50,HT-1080 cells [4]; cotreated with Trolox (100 μM),0.924 µM
same,EC50,HT-1080 cells [4]; cotreated with ZVAD (45 μM),0.051 µM
same,EC50,HT-1080 cells [4]; cotreated with aToc (100 μM),1.08 µM
same,EC50,"HT-1080 cells [1]; HT-1080, 48 h, HT-1080 cells, 48 hours, no inhibitor, read-out: EC50 (μM) of TKD1079",0.0797 µM
same,EC50,HT-1080 cells [1]; [6],0.079 µM
same,cytotoxicity in breast MCF10A cells,[5],without harming
same,cytotoxicity in normal human lung Beas-2B cells,Beas-2B epithelial cells,without harming
"O=S(=O)(NC1CCCCC1)c1ccc2c(c1)C(Br)c1cc(S(=O)(=O)NC3CCCCC3)ccc1-2 [TKD1100, 9-bromo-N2,N^7-dicyclohexyl-9H-fluorene-2,7-disulfonamide]",EC50,HT-1080 cells [1]; [6],3.56 µM
"O=S(=O)(NC1C2CC3CC(C2)CC1C3)c1ccc2c(c1)C(=NO)c1cc(S(=O)(=O)NC3C4CC5CC(C4)CC3C5)ccc1-2 (stereo not shown) [TKD2043, N^2,N^7-di(adamantan-2-yl)-9-(hydroxyimino)-9H-fluorene-2,7-disulfonamide]",cytotoxicity (cell viability) in NCI-H23 cells,NCI-H23 cells,significantly more potent than TKD1079 and FIN56
"CC(C)CNS(=O)(=O)c1ccc2c(c1)C(=NO)c1cc(S(=O)(=O)NCC(C)C)ccc1-2 [TKD10416, 9-(hydroxyimino)-N^2,N^7-diisobutyl-9H-fluorene-2,7-disulfonamide]",EC50,HT-1080 cells [1]; [6],4.35 µM
